Data set [1] in a line: Drug uptake in human A549 cells assessed as increase in fluorescence intensity at 25 uM incubated for 4 hrs by DAPI staining based confocal laser scanning microscopic analysis. In kind it is ADME, cell-based. Conditions: a549, 4 h.
The nature of data set [2]: Drug uptake in human HepG2 cells assessed as increase in fluorescence intensity at 25 uM incubated for 4 hrs by DAPI staining based confocal laser scanning microscopic analysis. It is filed as ADME, cell-based. The note with it: hepg2, 4 h.
Data set [3] can be described thus: Cytotoxicity against human HL7702 cells assessed as inhibition of cell growth incubated for 48 hrs by CCK-8 assay. Conditions: HL7702 (L02) cells. In kind it is toxicity, cell-based. (In general: Formazan colour is commonly taken as a measure of viable cells.)
For another data set, the system named is Bel-7402. Briefly: Cytotoxicity against human Bel-7402 cells assessed as inhibition of cell growth incubated for 48 hrs by CCK-8 assay. The note with it: Bel-7402, 48 h. It is filed as functional, cell-based.
The test system of the next data set is Huh-7. Briefly: Cytotoxicity against human Huh-7 cells assessed as inhibition of cell growth incubated for 48 hrs by CCK-8 assay. In kind it is functional, cell-based. The note with it: Huh-7, 48 h.
Another data set deals with A549. Briefly: Cytotoxicity against human A549 cells assessed as inhibition of cell growth incubated for 48 hrs by CCK-8 assay. It is filed as functional, cell-based. The note with it: A549, 48 h.
The next data set has as its system DU-145. Briefly: Cytotoxicity against human DU-145 cells assessed as inhibition of cell growth incubated for 48 hrs by CCK-8 assay. In kind it is functional, cell-based. Conditions: DU-145, 48 h.
Data set [4] concerns HepG2. Briefly: Cytotoxicity against human HepG2 cells assessed as inhibition of cell growth incubated for 48 hrs by CCK-8 assay. In kind it is functional, cell-based. The note with it: HepG2, 48 h.
For data set [5], the system named is HepG2. Briefly: Cytotoxicity against human HepG2 cells harboring siRNA mediated ASGPR knockdown assessed as inhibition of cell growth by measuring increase in IC50 at 0.125 to 16 uM incubated for 48 hrs by CCK-8 assay. In kind it is functional, cell-based. The note with it: dose 0.125-16 µM.
Data set [6] is described as follows: Potency index, ratio of test compound IC50 to doxorubicin IC50 for cytotoxicity against human HL7702 cells assessed as inhibition of cell growth incubated for 48 hrs by CCK-8 assay. In kind it is toxicity, cell-based. The note with it: HL7702 (L02) cells, read-out: Ratio IC50.
Data set [7] concerns HepG2. Briefly: Competitive binding affinity to ASGPR in human HepG2 cells assessed as reduction in drug uptake pretreated for 0.5 hrs followed by 2-(-5-(-3,3-dimethyl-1-(6-oxo-6-((5-(((2R,3R,4S,5R)-3,4,5,6-tetrahydroxytetrahydro-2H-pyran-2-yl)methoxy)pentyl)amino)hexyl)-5-sulfoindolin-2-ylidene)penta-1,3-dien-1-yl …. It is filed as cell-based. The note with it: time 4.5 hrs.
A short description of data set [8]: Drug uptake in human DU-145 cells lacking ASGPR expression assessed as increase in fluorescence intensity at 25 uM incubated for 4 hrs by DAPI staining based confocal laser scanning microscopic analysis. It is filed as ADME, cell-based. Conditions: du-145, 4 h.
Data set [9] is described as follows: Drug uptake in human HepG2 cells overexpressing ASGPR assessed as increase in fluorescence intensity at 25 uM incubated for 4 hrs by DAPI staining based confocal laser scanning microscopic analysis. It is filed as ADME, cell-based. The note with it: hepg2, 4 h.
Data set [10] can be described thus: Drug uptake in human HepG2 cells assessed as increase in fluorescence intensity at 25 uM at 4 degreeC incubated for 4 hrs by DAPI staining based confocal laser scanning microscopic analysis. The note with it: hepg2, 4 h. It is filed as ADME, cell-based.
Data set [11] in a line: Drug uptake in human HepG2 cells assessed as increase in fluorescence intensity incubated for 4 hrs by DAPI staining based confocal laser scanning microscopic analysis. Conditions: hepg2, 4 h, dose 0-50 µM. In kind it is ADME, cell-based.
The nature of data set [12]: Drug uptake in human A549 cells lacking ASGPR expression assessed as increase in fluorescence intensity at 25 uM incubated for 4 hrs by DAPI staining based confocal laser scanning microscopic analysis. In kind it is ADME, cell-based. The note with it: a549, 4 h.
A short description of data set [13]: Drug uptake in human HepG2 cells assessed as increase in fluorescence intensity at 25 uM by DAPI staining based confocal laser scanning microscopic analysis. It is filed as ADME, cell-based. Conditions: hepg2, 25 µM, TDE = time-dependent effect, time 0-4 hrs.
The nature of data set [14]: Drug uptake in human Huh-7 cells harboring low ASGPR expression assessed as increase in fluorescence intensity at 25 uM incubated for 4 hrs by DAPI staining based confocal laser scanning microscopic analysis. The note with it: huh-7, 4 h. In kind it is ADME, cell-based.

Active and inactive are the calls of the source. The rule behind the calls is not given here.

What is called IC50 is the concentration that inhibits the measured activity by half.

Turning to `CC[N+]1=C(/C=C/C=C/C=C2/N(CCCCCC(=O)NCCCCCO[C@@H]3[C@H](O)[C@@H](O)C(O)O[C@@H]3CO)c3ccc(S(=O)(=O)O)cc3C2(C)C)C(C)(C)c2cc(S(=O)(=O)[O-])ccc21` (stereo not given in full), the Drug uptake entry in data set [1] and in data set [2] was “Active” throughout.
With `CC[N+]1=C(/C=C/C=C/C=C2/N(CCCCCC(=O)NCCCCCO[C@H]3[C@@H](O)[C@@H](CO)OC(O)[C@@H]3O)c3ccc(S(=O)(=O)O)cc3C2(C)C)C(C)(C)c2cc(S(=O)(=O)[O-])ccc21` (stereo not given in full), the Drug uptake entry in [1] and in data set [2] was “Active” throughout.
As to `COc1cccc2c1C(=O)c1c(O)c3c(c(O)c1C2=O)C[C@@](O)(C(=O)CO)C[C@@H]3O[C@H]1C[C@H](NC(=O)CCCCCO[C@H]2C(O)O[C@H](CO)[C@H](O)[C@@H]2O)[C@H](O)[C@H](C)O1` (stereo not given in full), the 50% inhibitory concentration (IC50) at 48 h in data set [3] came out at 9.68 µM. The concentration for half-maximal inhibition (IC50) in the data set on Bel-7402 was found to be 3.11 µM; in the data set with Huh-7 it was 1.14 µM; with A549 it was 9.35 µM; in the data set with DU-145, 0.88 µM; in the data set with HepG2 [4] it was 3.44 µM. For the same compound, in the data set on HepG2 [5], the result was Active. Also, in data set [6], the selectivity ratio at 48 h was greater than 12.
As to `CC(=O)N[C@H]1C(O)O[C@H](CO)[C@H](O)[C@@H]1O` (stereo not given in full), the Activity entry in the data set on HepG2 [7] was “Dose-Dependent Effect”.
As for `CC[N+]1=C(/C=C/C=C/C=C2/N(CCCCCC(=O)NCCCCCOC[C@H]3OC(O)[C@H](O)[C@@H](O)[C@H]3O)c3ccc(S(=O)(=O)O)cc3C2(C)C)C(C)(C)c2cc(S(=O)(=O)[O-])ccc21` (stereo not given in full), the Drug uptake result in data set [1] is reported as “Active”; in data set [2], “Active”; in data set [8] it was “Not Active”; in data set [9] it was “Active”; in data set [10] it was “Not Active”; in data set [11], “Dose-Dependent Effect”. In addition, the Drug uptake result in [12] is given as “Not Active”; in [13], “Tde”; in data set [14], “Not Active”.
In the case of `CC[N+]1=C(/C=C/C=C/C=C2/N(CCCCCC(=O)NCCCCCO[C@H]3C(O)O[C@H](OO)[C@H](O)[C@@H]3O)c3ccc(S(=O)(=O)O)cc3C2(C)C)C(C)(C)c2cc(S(=O)(=O)[O-])ccc21` (stereo not given in full), the Drug uptake result in data set [1] and in data set [2] was “Active” throughout.
As to `CC[N+]1=C(/C=C/C=C/C=C2/N(CCCCCC(=O)NCCCCCOC3O[C@H](CO)[C@H](O)[C@H](O)[C@H]3O)c3ccc(S(=O)(=O)O)cc3C2(C)C)C(C)(C)c2cc(S(=O)(=O)[O-])ccc21` (stereo not given in full), the Drug uptake result in data set [1] and in data set [2] was “Active” throughout.
Take `COc1cccc2c1C(=O)c1c(O)c3c(c(O)c1C2=O)C[C@@](O)(C(=O)CO)C[C@@H]3O[C@H]1C[C@H](NC(=O)CCCCCOC[C@H]2OC(O)[C@H](O)[C@@H](O)[C@H]2O)[C@H](O)[C@H](C)O1` (stereo not given in full): the IC50 at 48 h in data set [3] was greater than 10 µM. In addition, the half-maximal inhibitory concentration (IC50) in the data set on Bel-7402 is greater than 10 µM; in the data set on Huh-7, greater than 10 µM; in the data set on A549 it was greater than 10 µM; in the data set with DU-145, 6.74 µM; in the data set with HepG2 [4] it was greater than 10 µM. Besides, the selectivity ratio at 48 h in data set [6] is greater than 12.
On to `OC[C@H]1OC(O)[C@H](O)[C@@H](O)[C@H]1O` (stereo not given in full), for which, in the data set on HepG2 [7], the Activity result is “Dose-Dependent Effect”.
For `COc1cccc2c1C(=O)c1c(O)c3c(c(O)c1C2=O)C[C@@](O)(C(=O)CO)C[C@@H]3O[C@H]1C[C@H](N)[C@H](O)[C@H](C)O1` [DOXORUBICIN], the 50% inhibitory concentration (IC50) with Bel-7402 is 0.43 µM; in the data set with Huh-7, 0.12 µM; with DU-145, less than 0.1 µM.
On to `COc1cccc2c1C(=O)c1c(O)c3c(c(O)c1C2=O)C[C@@](O)(C(=O)CO)C[C@@H]3O[C@H]1C[C@H](NC(=O)CCCCCO[C@@H]2O[C@H](CO)[C@H](O)[C@H](O)[C@H]2O)[C@H](O)[C@H](C)O1`, for which, in data set [3], the IC50 at 48 h is greater than 10 µM. Besides, the IC50 in the data set with Bel-7402 is 4.67 µM; in the data set with Huh-7, 1.29 µM; with A549, greater than 10 µM; in the data set on DU-145 it was 2.67 µM; in the data set with HepG2 [4], 6.71 µM. In addition, in the data set on HepG2 [5], the outcome was Active. Besides, the selectivity ratio at 48 h in data set [6] is greater than 12.

The values above are taken from ChEMBL document CHEMBL5505954, “Design, synthesis and biological evaluation of the positional isomers of the galactose conjugates able to target hepatocellular carcinoma cells via ASGPR-mediated cellular uptake and cytotoxicity” (Eur J Med Chem, 2024).
